Experimental data published in PubChem BioAssay (NCI).
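The compound was tested at five concentrations on cells cultured in 96-well plates, with a 48-hour exposure period. Definition used: TGI = concentration required for complete inhibition of growth.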

Experiments:
Experiment in all cases: growth of human tumour cells (NCI), 48 h
[1] = test system: KM20L2 colon
[2] = test system: HCC-2998 colon
[3] = test system: MOLT-4 leukemia
[4] = test system: SK-MEL-28 melanoma
[5] = test system: OVCAR-4 ovarian
[6] = test system: RXF 393 renal
[7] = test system: DMS 114 small cell lung
[8] = test system: RPMI-8226 leukemia
[9] = test system: K-562 leukemia
[10] = test system: SF-295 CNS
[11] = test system: CAKI-1 renal
[12] = test system: SF-268 CNS
[13] = test system: COLO 205 colon
[14] = test system: NCI-H460 lung
[15] = test system: SK-OV-3 ovarian
[16] = test system: UACC-62 melanoma
[17] = test system: OVCAR-8 ovarian
[18] = test system: HT29 colon
[19] = test system: NCI-H522 lung
[20] = test system: UO-31 renal

Cn1c(=O)c2nc(NCCO)cnc2n(C)c1=O
TGI [1]: > 100 µM
TGI [2]: > 100 µM
TGI [3]: > 100 µM
TGI [4]: > 100 µM
TGI [5]: > 100 µM
TGI [6]: 81.5 µM
TGI [7]: > 100 µM
TGI [8]: > 100 µM
TGI [9]: > 100 µM
TGI [10]: > 100 µM
TGI [11]: > 100 µM
TGI [12]: > 100 µM
TGI [13]: > 100 µM
TGI [14]: > 100 µM
TGI [15]: > 100 µM
TGI [16]: > 100 µM
TGI [17]: > 100 µM
TGI [18]: > 100 µM
TGI [19]: 46.4 µM
TGI [20]: > 100 µM

Cc1c(N=NN(C)C)cc[n+]([O-])c1C
TGI [1]: > 100 µM
TGI [2]: > 100 µM
TGI [3]: > 100 µM
TGI [4]: > 100 µM
TGI [5]: > 100 µM
TGI [6]: > 100 µM
TGI [7]: > 100 µM
TGI [8]: > 100 µM
TGI [9]: > 100 µM
TGI [10]: > 100 µM
TGI [11]: > 100 µM
TGI [12]: > 100 µM
TGI [13]: > 100 µM
TGI [14]: > 100 µM
TGI [15]: > 100 µM
TGI [16]: > 100 µM
TGI [17]: > 100 µM
TGI [18]: > 100 µM
TGI [19]: > 100 µM
TGI [20]: > 100 µM

Cc1cc2c(C(C)C)c(O)c(O)c(C=Nc3ccccc3)c2c(O)c1-c1c(C)cc2c(C(C)C)c(O)c(O)c(C=Nc3ccccc3)c2c1O
TGI [1]: > 100 µM
TGI [2]: > 100 µM
TGI [3]: > 100 µM
TGI [4]: > 100 µM
TGI [5]: > 100 µM
TGI [6]: > 100 µM
TGI [7]: > 100 µM
TGI [8]: > 100 µM
TGI [9]: > 100 µM
TGI [10]: > 100 µM
TGI [11]: > 100 µM
TGI [12]: > 100 µM
TGI [13]: > 100 µM
TGI [14]: > 100 µM
TGI [15]: > 100 µM
TGI [16]: > 100 µM
TGI [17]: > 100 µM
TGI [18]: > 100 µM
TGI [19]: > 100 µM
TGI [20]: > 100 µM
